In general, pIC50 refers to the IC50 on a negative log10 scale, so that one unit is a factor of ten.

pIC50: −log10 of the molar value. Where a name gives a salt, the structure may show the parent alone. Bounds are passed on as bounds.

This experiment has as its target T1, His-tagged recombinant human TrkA (Homo sapiens, UniProt P04629).
T1 construct: 6HIS tagged cytoplasmic domain from Invitrogen, Catalog No. PV3144; purchased Invitrogen PV3144
Put plainly: TrkA Kinase Binding Assay (LanthaScreen Eu). The note with it: averaged IC50; TR-FRET binding, 60 min, 22° C.; read-out: TrkA Enzyme IC50. Put shortly: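 TR-FRET tracer displacement: 5 nM His-tagged TrkA cytoplasmic domain with 4 nM Tracer 236, biotinylated anti-His and Eu-streptavidin in pH 7.5 MOPS buffer, 2% DMSO, 60 min at 22 °C. 665/615 nm emission ratio gave percent of control; IC50 from four-parameter fit.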
(In TR-FRET formats the signal depends on donor and acceptor labels being close together.)

T1 sequence (P04629 440-796 limits assumed): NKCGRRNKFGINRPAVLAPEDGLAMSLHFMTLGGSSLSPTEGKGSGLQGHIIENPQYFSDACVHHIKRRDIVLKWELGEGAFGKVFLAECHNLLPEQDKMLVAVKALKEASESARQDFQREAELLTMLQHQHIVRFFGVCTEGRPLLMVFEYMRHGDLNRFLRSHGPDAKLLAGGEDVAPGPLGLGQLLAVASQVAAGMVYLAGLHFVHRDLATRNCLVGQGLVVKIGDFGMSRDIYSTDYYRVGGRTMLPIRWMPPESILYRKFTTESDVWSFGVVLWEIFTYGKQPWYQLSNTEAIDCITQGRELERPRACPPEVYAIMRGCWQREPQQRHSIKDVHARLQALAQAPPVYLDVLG

In the case of `COCc1ccc(OC(F)(F)F)c(CNC(=O)Nc2c(C)c(OC3CNC3)nn2-c2ccccc2)c1` [Example 89, 1-(3-(azetidin-3-yloxy)-4-methyl-1-phenyl-1H-pyrazol-5-yl)-3-(5-(methoxymethyl)-2-(trifluoromethoxy)benzyl)urea], the pIC50 was more than 7.00.
Then `COCc1ccc(OC(F)(F)F)c(CNC(=O)Nc2c(C)c(OC3CC4(CCN4)C3)nn2-c2ccccc2)c1` (centres unmarked) [Example 90, 1-(3-(1-azaspiro[3.3]heptan-6-yloxy)-4-methyl-1-phenyl-1H-pyrazol-5-yl)-3-(5-(methoxymethyl)-2-(trifluoromethoxy)benzyl)urea], with more than 7.00.
Then `COCc1ccc(OC(F)(F)F)c(CNC(=O)Nc2c(C)c(OC[C@H]3CCN3)nn2-c2ccccc2)c1` [Example 91, (R)-1-(3-(azetidin-2-ylmethoxy)-4-methyl-1-phenyl-1H-pyrazol-5-yl)-3-(5-(methoxymethyl)-2-(trifluoromethoxy)benzyl)urea], with more than 7.00.
The figure for `COCc1ccc(OC(F)(F)F)c(CNC(=O)Nc2c(C)c(OC[C@@H]3CCN3)nn2-c2ccccc2)c1` [Example 92, (S)-1-(3-(azetidin-2-ylmethoxy)-4-methyl-1-phenyl-1H-pyrazol-5-yl)-3-(5-(methoxymethyl)-2-(trifluoromethoxy)benzyl)urea] is more than 7.00; for `COCc1ccc(OC(F)(F)F)c(CNC(=O)Nc2c(C)c(OCC3CCN(C)CC3)nn2-c2ccccc2)c1` [Example 93, 1-(5-(methoxymethyl)-2-(trifluoromethoxy)benzyl)-3-(4-methyl-3-((1-methylpiperidin-4-yl)methoxy)-1-phenyl-1H-pyrazol-5-yl)urea] it is more than 7.00.
`COCc1ccc(OC(F)(F)F)c(CNC(=O)Nc2c(C)c(OC3CC4(CCN4C)C3)nn2-c2ccccc2)c1` (centres unmarked) [Example 94, 1-(5-(methoxymethyl)-2-(trifluoromethoxy)benzyl)-3-(4-methyl-3-((1-methyl-1-azaspiro[3.3]heptan-6-yl)oxy)-1-phenyl-1H-pyrazol-5-yl)urea 2,2,2-trifluoroacetate]: the negative-log IC50 (pIC50) is more than 7.00.
The figure for `COCc1ccc(OC(F)(F)F)c(CNC(=O)Nc2c(C)c(O[C@@H]3CCNC[C@H]3F)nn2-c2ccccc2)c1` [Example 95, 1-(3-(((3R,4R)-3-fluoropiperidin-4-yl)oxy)-4-methyl-1-phenyl-1H-pyrazol-5-yl)-3-(5-(methoxymethyl)-2-(trifluoromethoxy)benzyl)urea] is more than 7.00; for `COCc1ccc(OC(F)(F)F)c(CNC(=O)Nc2c(C)c(OC[C@H](C)N)nn2-c2ccccc2)c1` [Example 96, (S)-1-(3-(2-aminopropoxy)-4-methyl-1-phenyl-1H-pyrazol-5-yl)-3-(5-(methoxymethyl)-2-(trifluoromethoxy)benzyl)urea] it is more than 7.00.
The figure for `COCc1ccc(OC(F)(F)F)c(CNC(=O)Nc2c(C)c(OC[C@@H](C)N)nn2-c2ccccc2)c1` [Example 97, (R)-1-(3-(2-aminopropoxy)-4-methyl-1-phenyl-1H-pyrazol-5-yl)-3-(5-(methoxymethyl)-2-(trifluoromethoxy)benzyl)urea] is more than 7.00; for `COCc1ccc(OC(F)(F)F)c(CNC(=O)Nc2c(C)c(O[C@@H]3CCN(C)C[C@H]3F)nn2-c2ccccc2)c1` [Example 98, 1-(3-(((3R,4R)-3-fluoro-1-methylpiperidin-4-yl)oxy)-4-methyl-1-phenyl-1H-pyrazol-5-yl)-3-(5-(methoxymethyl)-2-(trifluoromethoxy)benzyl)urea] it is more than 7.00.
With `COCc1ccc(OC(F)(F)F)c(CNC(=O)Nc2c(C)c(O[C@@H]3CCNC[C@@H]3F)nn2-c2ccccc2)c1` [Example 99, 1-(3-(((3S,4R)-3-fluoropiperidin-4-yl)oxy)-4-methyl-1-phenyl-1H-pyrazol-5-yl)-3-(5-(methoxymethyl)-2-(trifluoromethoxy)benzyl)urea], the pIC50 is more than 7.00.
Then `COCc1ccc(OC(F)(F)F)c(CNC(=O)Nc2c(C)c(O[C@H]3C[C@H](N)C3)nn2-c2ccccc2)c1` [Example 100, 1-(3-((1r,3r)-3-aminocyclobutoxy)-4-methyl-1-phenyl-1H-pyrazol-5-yl)-3-(5-(methoxymethyl)-2-(trifluoromethoxy)benzyl)urea], with more than 7.00; and `COCc1ccc(OC(F)(F)F)c(CNC(=O)Nc2c(C)c(O[C@@H]3CCN(C)C[C@@H]3F)nn2-c2ccccc2)c1` [Example 101, 1-(3-(((3S,4R)-3-fluoro-1-methylpiperidin-4-yl)oxy)-4-methyl-1-phenyl-1H-pyrazol-5-yl)-3-(5-(methoxymethyl)-2-(trifluoromethoxy)benzyl)urea], with more than 7.00.
Take `COCc1ccc(OC(F)(F)F)c(CNC(=O)Nc2c(C)c(OC[C@H]3COCCN3)nn2-c2ccccc2)c1` [Example 102, (R)-1-(5-(methoxymethyl)-2-(trifluoromethoxy)benzyl)-3-(4-methyl-3-(morpholin-3-ylmethoxy)-1-phenyl-1H-pyrazol-5-yl)urea]: the pIC50 was more than 7.00.
For the compound `COCc1ccc(OC(F)(F)F)c(CNC(=O)Nc2c(C)c(OC[C@@H]3COCCN3)nn2-c2ccccc2)c1` [Example 103, (S)-1-(5-(methoxymethyl)-2-(trifluoromethoxy)benzyl)-3-(4-methyl-3-(morpholin-3-ylmethoxy)-1-phenyl-1H-pyrazol-5-yl)urea], the negative-log IC50 (pIC50) was more than 7.00.
Take `COCc1ccc(OC(F)(F)F)c(CNC(=O)Nc2c(C)c(O[C@H]3C[C@H](N(C)C)C3)nn2-c2ccccc2)c1` [Example 104, 1-(3-((1r,3r)-3-(dimethylamino)cyclobutoxy)-4-methyl-1-phenyl-1H-pyrazol-5-yl)-3-(5-(methoxymethyl)-2-(trifluoromethoxy)benzyl)urea]: the pIC50 was more than 7.00.
Then `COCc1ccc(OC(F)F)c(CNC(=O)Nc2c(C)c(OCC3CCNCC3)nn2-c2ccccc2)c1` [Example 105, 1-(2-(difluoromethoxy)-5-(methoxymethyl)benzyl)-3-(4-methyl-1-phenyl-3-(piperidin-4-ylmethoxy)-1H-pyrazol-5-yl)urea], with more than 7.00; and `COCc1ccc(OC(F)(F)F)c(CNC(=O)Nc2c(C)c(OCC3CCN(C)C3)nn2-c2ccccc2)c1` (centres unmarked) [Example 106, 1-(5-(methoxymethyl)-2-(trifluoromethoxy)benzyl)-3-(4-methyl-3-((1-methylpyrrolidin-3-yl)methoxy)-1-phenyl-1H-pyrazol-5-yl)urea hydrochloride], with more than 7.00.
The figure for `COCc1ccc(OC(F)F)c(CNC(=O)Nc2c(C)c(OCC3CCN(C)C3)nn2-c2ccccc2)c1` (centres unmarked) [Example 107, 1-(2-(difluoromethoxy)-5-(methoxymethyl)benzyl)-3-(4-methyl-3-((1-methylpyrrolidin-3-yl)methoxy)-1-phenyl-1H-pyrazol-5-yl)urea] is more than 7.00; for `COCc1ccc(OC(F)F)c(CNC(=O)Nc2c(C)c(OC3CC4(C3)CN(C)C4)nn2-c2ccccc2)c1` [Example 108, 1-(2-(difluoromethoxy)-5-(methoxymethyl)benzyl)-3-(4-methyl-3-((2-methyl-2-azaspiro[3.3]heptan-6-yl)oxy)-1-phenyl-1H-pyrazol-5-yl)urea] it is more than 7.00; for `COCc1ccc(OC(F)(F)F)c(CNC(=O)Nc2c(C)c(OC[C@H](N)CO)nn2-c2ccccc2)c1` [Example 109, (R)-1-(3-(2-amino-3-hydroxypropoxy)-4-methyl-1-phenyl-1H-pyrazol-5-yl)-3-(5-(methoxymethyl)-2-(trifluoromethoxy)benzyl)urea] it is more than 7.00.
Then `COCc1ccc(OC(F)(F)F)c(CNC(=O)Nc2c(C)c(OC[C@@H]3COCCN3C)nn2-c2ccccc2)c1` [Example 110, (S)-1-(5-(methoxymethyl)-2-(trifluoromethoxy)benzyl)-3-(4-methyl-3-((4-methylmorpholin-3-yl)methoxy)-1-phenyl-1H-pyrazol-5-yl)urea], with more than 7.00; and `COCc1ccc(OC(F)(F)F)c(CNC(=O)Nc2c(C)c(OCC3CCCN(C)C3)nn2-c2ccccc2)c1` (centres unmarked) [Example 111, 1-(5-(methoxymethyl)-2-(trifluoromethoxy)benzyl)-3-(4-methyl-3-((1-methylpiperidin-3-yl)methoxy)-1-phenyl-1H-pyrazol-5-yl)urea], with more than 7.00.
On to `COCc1ccc(OC(F)(F)F)c(CNC(=O)Nc2c(C)c(OC[C@@H]3CNCCO3)nn2-c2ccccc2)c1` [Example 112, (S)-1-(5-(methoxymethyl)-2-(trifluoromethoxy)benzyl)-3-(4-methyl-3-(morpholin-2-ylmethoxy)-1-phenyl-1H-pyrazol-5-yl)urea], for which the pIC50 is more than 7.00.
Then `COCc1ccc(OC(F)(F)F)c(CNC(=O)Nc2c(C)c(OC[C@H]3COCCN3C)nn2-c2ccccc2)c1` [Example 113], with more than 7.00; and `COCc1ccc(OC(F)(F)F)c(CNC(=O)Nc2c(C)c(OC[C@@H]3CN(C)CCO3)nn2-c2ccccc2)c1` [Example 114, (S)-1-(5-(methoxymethyl)-2-(trifluoromethoxy)benzyl)-3-(4-methyl-3-((4-methylmorpholin-2-yl)methoxy)-1-phenyl-1H-pyrazol-5-yl)urea], with more than 7.00; and `Cc1c(OCC2CCN(C)CC2)nn(-c2ccccc2)c1NC(=O)NCc1ccccc1OC(F)(F)F` [Example 115, 1-(4-methyl-3-((1-methylpiperidin-4-yl)methoxy)-1-phenyl-1H-pyrazol-5-yl)-3-(2-(trifluoromethoxy)benzyl)urea], with more than 7.00.
The figure for `COCc1ccc(-c2ccccc2)c(CNC(=O)Nc2c(C)c(-c3cnn(C)c3)nn2-c2ccccc2)c1` [Example 116, 1-(1′,4-dimethyl-1-phenyl-1H,1′H-[3,4′-bipyrazol]-5-yl)-3-((4-(methoxymethyl)-[1,1′-biphenyl]-2-yl)methyl)urea] is more than 7.00; for `COCc1cc(CNC(=O)Nc2c(C)c(-c3cnn(C)c3)nn2-c2ccccc2)c(C2CCC2)cc1F` [Example 117, 1-(2-cyclobutyl-4-fluoro-5-(methoxymethyl)benzyl)-3-(1′,4-dimethyl-1-phenyl-1H,1′H-[3,4′-bipyrazol]-5-yl)urea] it is more than 7.00.

(Values after patent US9969694B2, “N-(arylalkyl)-N′-pyrazolyl-urea, thiourea, guanidine and cyanoguanidine compounds as TrkA kinase inhibitors” (Array BioPharma Inc., priority 2012, dated 2018).)
